In ChEMBL document CHEMBL5038625, “Application of the dual-tail approach for the design and synthesis of novel Thiopyrimidine-Benzenesulfonamide hybrids as selective carbonic anhydrase inhibitors” (Eur J Med Chem, 2022):

What was measured:
LOX IMVI = assay: Antiproliferative activity against human LOX IMVI cells assessed as cell growth inhibition at 10 uM incubated for 24 hrs by sulforhodamine B assay; assay type: functional; details: read-out: GI
SF-539 = assay: Antiproliferative activity against human SF-539 cells assessed as cell growth inhibition at 10 uM incubated for 24 hrs by sulforhodamine B assay; assay type: functional; details: read-out: GI
PC-3 = assay: Antiproliferative activity against human PC-3 cells assessed as cell growth inhibition at 10 uM incubated for 24 hrs by sulforhodamine B assay; assay type: functional; details: read-out: GI
SR = assay: Antiproliferative activity against human SR cells assessed as cell growth inhibition at 10 uM incubated for 24 hrs by sulforhodamine B assay; assay type: functional; details: read-out: GI
DU-145 = assay: Antiproliferative activity against human DU-145 cells assessed as cell growth inhibition at 10 uM incubated for 24 hrs by sulforhodamine B assay; assay type: functional; details: read-out: GI
SK-MEL-5 = assay: Antiproliferative activity against human SK-MEL-5 cells assessed as cell growth inhibition at 10 uM incubated for 24 hrs by sulforhodamine B assay; assay type: functional; details: read-out: GI
SN12C = assay: Antiproliferative activity against human SN12C cells assessed as cell growth inhibition at 10 uM incubated for 24 hrs by sulforhodamine B assay; assay type: functional; details: read-out: GI
A549 = assay: Antiproliferative activity against human A549 cells assessed as cell growth inhibition at 10 uM incubated for 24 hrs by sulforhodamine B assay; assay type: functional; details: read-out: GI
COLO 205 = assay: Antiproliferative activity against human COLO 205 cells assessed as cell growth inhibition at 10 uM incubated for 24 hrs by sulforhodamine B assay; assay type: functional; details: read-out: GI
K562 = assay: Antiproliferative activity against human K562 cells assessed as cell growth inhibition at 10 uM incubated for 24 hrs by sulforhodamine B assay; assay type: functional; details: read-out: GI
M14 = assay: Antiproliferative activity against human M14 cells assessed as cell growth inhibition at 10 uM incubated for 24 hrs by sulforhodamine B assay; assay type: functional; details: read-out: GI
T47D = assay: Antiproliferative activity against human T47D cells assessed as cell growth inhibition at 10 uM incubated for 24 hrs by sulforhodamine B assay; assay type: functional; details: read-out: GI
[1] = Antiproliferative activity against human […] cells assessed as cell growth inhibition at 10 uM incubated for 24 hrs by sulforhodamine B assay; assay type: functional; details: read-out: GI
Carbonic anhydrase 9 = Carbonic anhydrase 9 (Homo sapiens, UniProt Q16790); assay: Inhibition of human CA9 preincubated for 15 mins by phenol red dye based stopped flow CO2 hydration assay
MCF7 = assay: Antiproliferative activity against human MCF7 cells assessed as cell growth inhibition at 10 uM incubated for 24 hrs by sulforhodamine B assay; assay type: functional; details: read-out: GI
KM12 = assay: Antiproliferative activity against human KM12 cells assessed as cell growth inhibition at 10 uM incubated for 24 hrs by sulforhodamine B assay; assay type: functional; details: read-out: GI
UO-31 = assay: Antiproliferative activity against human UO-31 cells assessed as cell growth inhibition at 10 uM incubated for 24 hrs by sulforhodamine B assay; assay type: functional; details: read-out: GI
HCT-15 = assay: Antiproliferative activity against human HCT-15 cells assessed as cell growth inhibition at 10 uM incubated for 24 hrs by sulforhodamine B assay; assay type: functional; details: read-out: GI
MOLT-4 = assay: Antiproliferative activity against human MOLT-4 cells assessed as cell growth inhibition at 10 uM incubated for 24 hrs by sulforhodamine B assay; assay type: functional; details: read-out: GI
HT-29 = assay: Antiproliferative activity against human HT-29 cells assessed as cell growth inhibition at 10 uM incubated for 24 hrs by sulforhodamine B assay; assay type: functional; details: read-out: GI
Carbonic anhydrase 2 = Carbonic anhydrase 2 (Homo sapiens, UniProt P00918); assay: Inhibition of human CA2 preincubated for 15 mins by phenol red dye based stopped flow CO2 hydration assay
CCRF-CEM = assay: Antiproliferative activity against human CCRF-CEM cells assessed as cell growth inhibition at 10 uM incubated for 24 hrs by sulforhodamine B assay; assay type: functional; details: read-out: GI
OVCAR-4 = assay: Antiproliferative activity against human OVCAR-4 cells assessed as cell growth inhibition at 10 uM incubated for 24 hrs by sulforhodamine B assay; assay type: functional; details: read-out: GI
HCT-116 = assay: Antiproliferative activity against human HCT-116 cells assessed as cell growth inhibition at 10 uM incubated for 24 hrs by sulforhodamine B assay; assay type: functional; details: read-out: GI
CAKI-1 = assay: Antiproliferative activity against human CAKI-1 cells assessed as cell growth inhibition at 10 uM incubated for 24 hrs by sulforhodamine B assay; assay type: functional; details: read-out: GI
OVCAR-5 = assay: Antiproliferative activity against human OVCAR-5 cells assessed as cell growth inhibition at 10 uM incubated for 24 hrs by sulforhodamine B assay; assay type: functional; details: read-out: GI
ACHN = assay: Antiproliferative activity against human ACHN cells assessed as cell growth inhibition at 10 uM incubated for 24 hrs by sulforhodamine B assay; assay type: functional; details: read-out: GI
MDA-MB-231 = assay: Antiproliferative activity against human MDA-MB-231 cells assessed as cell growth inhibition at 10 uM incubated for 24 hrs by sulforhodamine B assay; assay type: functional; details: read-out: GI
NCI-H23 = assay: Antiproliferative activity against human NCI-H23 cells assessed as cell growth inhibition at 10 uM incubated for 24 hrs by sulforhodamine B assay; assay type: functional; details: read-out: GI
NCI-H522 = assay: Antiproliferative activity against human NCI-H522 cells assessed as cell growth inhibition at 10 uM incubated for 24 hrs by sulforhodamine B assay; assay type: functional; details: read-out: GI
NCI-H226 = assay: Antiproliferative activity against human NCI-H226 cells assessed as cell growth inhibition at 10 uM incubated for 24 hrs by sulforhodamine B assay; assay type: functional; details: read-out: GI
EKVX = assay: Antiproliferative activity against human EKVX cells assessed as cell growth inhibition at 10 uM incubated for 24 hrs by sulforhodamine B assay; assay type: functional; details: read-out: GI
RPMI-8226 = assay: Antiproliferative activity against human RPMI-8226 cells assessed as cell growth inhibition at 10 uM incubated for 24 hrs by sulforhodamine B assay; assay type: functional; details: read-out: GI
SK-MEL-2 = assay: Antiproliferative activity against human SK-MEL-2 cells assessed as cell growth inhibition at 10 uM incubated for 24 hrs by sulforhodamine B assay; assay type: functional; details: read-out: GI
HL-60 = assay: Antiproliferative activity against human HL-60 cells assessed as cell growth inhibition at 10 uM incubated for 24 hrs by sulforhodamine B assay; assay type: functional; details: read-out: GI
UACC-62 = assay: Antiproliferative activity against human UACC-62 cells assessed as cell growth inhibition at 10 uM incubated for 24 hrs by sulforhodamine B assay; assay type: functional; details: read-out: GI
MDA-MB-468 = assay: Antiproliferative activity against human MDA-MB-468 cells assessed as cell growth inhibition at 10 uM incubated for 24 hrs by sulforhodamine B assay; assay type: functional; details: read-out: GI
RXF 393 = assay: Antiproliferative activity against human RXF 393 cells assessed as cell growth inhibition at 10 uM incubated for 24 hrs by sulforhodamine B assay; assay type: functional; details: read-out: GI
Malme-3M = assay: Antiproliferative activity against human Malme-3M cells assessed as cell growth inhibition at 10 uM incubated for 24 hrs by sulforhodamine B assay; assay type: functional; details: read-out: GI

Ki (Carbonic anhydrase 9) [nM] | Ki (Carbonic anhydrase 2) [nM] | Structure (SMILES) | inhibition of growth at 10 µM (PC-3) [%] | inhibition of growth at 10 µM (SK-MEL-5) [%] | inhibition of growth at 10 µM (SN12C) [%] | inhibition of growth at 10 µM (K562) [%] | inhibition of growth at 10 µM (T47D) [%] | inhibition of growth at 10 µM (MCF7) [%] | inhibition of growth at 10 µM (UO-31) [%] | inhibition of growth at 10 µM (HCT-15) [%] | inhibition of growth at 10 µM (MOLT-4) [%] | inhibition of growth at 10 µM (OVCAR-4) [%] | inhibition of growth at 10 µM (HCT-116) [%] | inhibition of growth at 10 µM (CAKI-1) [%] | inhibition of growth at 10 µM (ACHN) [%] | other results
322 | > 20000 | NS(=O)(=O)c1ccc(Nc2cc(-c3ccccc3)nc(SCC(=O)c3ccc(Br)cc3)n2)cc1 | 8.3 | 5.28 | 13.3 | 22.8 | 10.3 | 26.9 | 19.4 | 28.4 | 15.8 | 7.69 | 8.87 | 19.4 | 9.12 | inhibition of growth at 10 µM (LOX IMVI): 12.7%; inhibition of growth at 10 µM (SF-539): 5.75%; inhibition of growth at 10 µM (SR): 15.7%; inhibition of growth at 10 µM (DU-145): 5.84%; inhibition of growth at 10 µM (A549): 6.27%; inhibition of growth at 10 µM (COLO 205): 9.34%; inhibition of growth at 10 µM (M14): 7.75%; inhibition of growth at 10 µM [1]: 14.2%; inhibition of growth at 10 µM (KM12): 11.9%; inhibition of growth at 10 µM (HT-29): 21.8%; inhibition of growth at 10 µM (CCRF-CEM): 8.13%; inhibition of growth at 10 µM (OVCAR-5): 5.54%
380 | > 20000 | CC(C)c1nc(SCC(=O)c2ccc(Br)cc2)nc(Nc2ccc(S(N)(=O)=O)cc2)c1C#N | 12.5 | 5.21 | 5.41 | 9.23 | 33 | 6.24 | 31.2 | 7.17 | 13.7 | 6.52 | 6.95 | 12.2 | 6.53 | inhibition of growth at 10 µM (MDA-MB-231): 9.41%; inhibition of growth at 10 µM (NCI-H23): 20.2%; inhibition of growth at 10 µM (NCI-H522): 10.7%; inhibition of growth at 10 µM (NCI-H226): 21.1%; inhibition of growth at 10 µM (EKVX): 10.7%; inhibition of growth at 10 µM (RPMI-8226): 12.3%; inhibition of growth at 10 µM (SK-MEL-2): 9.02%; inhibition of growth at 10 µM (HL-60): 24.1%; inhibition of growth at 10 µM (UACC-62): 24.3%; inhibition of growth at 10 µM (MDA-MB-468): 15.3%; inhibition of growth at 10 µM (RXF 393): 22.2%; inhibition of growth at 10 µM (Malme-3M): 11.7%
